# Experimental data taken from patent publication US20250332173A1, “COMPOUNDS AND METHODS FOR MODULATING NUCLEIC ACID SPLICING” (REMIX THERAPEUTICS INC., priority 2021, published 2025).
# Read-outs that look alike come from different tables or passages of the source.
# Experiments:
# [1] = system: HTT mRNA; experiment: RT-qPCR splicing assay, HTT canonical junction (CJ) and alternative junction (AJ) mRNA; assay type: cell-based, human; conditions: Homo sapiens; for AC50: increase in HTT alternative junction (AJ) mRNA, read-out: HTT AJ AC50
# How it was run: (§1)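 Following a 24-hour incubation of A673 or K562 cells with serially diluted compound (3-fold steps, highest final 10 uM), the lysates undergo cDNA synthesis plus qPCR. Canonical and alternative junctions are each quantified against PPIA, GAPDH or GUSB.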
# [2] = system: MYB mRNA; experiment: RT-qPCR splicing assay, MYB canonical junction (CJ) and alternative junction (AJ) mRNA; assay type: cell-based, human; conditions: Homo sapiens; for AC50: increase in MYB alternative junction (AJ) mRNA, read-out: MYB AJ AC50
# How it was run: as §1
# [3] = system: K562 (human chronic myelogenous leukemia) cells; experiment: Cell Titer Glo 2.0 cell viability assay; assay type: cell-based; conditions: Homo sapiens, K562, 72 h, K562 cells, 72 hours, Cell Titer Glo 2.0; read-out: K562 GI50
# [4] = system: Target C; experiment: RT-qPCR splicing assay panel, Target C canonical junction (CJ) mRNA; assay type: cell-based, human; conditions: Homo sapiens
# How it was run: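 Exposure: 24 h, 37 °C, 11-point 3-fold dilutions from 10 uM final, DMSO at or below 0.25%, in A673 or K562 cells. Detection: cell-lysate RT-qPCR of canonical junction mRNA relative to GAPDH, GUSB or PPIA.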
# [5] = decrease in HTT canonical junction (CJ) mRNA, RT-qPCR, read-out: HTT CJ IC50
# [6] = Table 5 panel, canonical junction qPCR, compound concentration having 50% response in CJ decrease, read-out: HTT IC50 (decrease in CJ mRNA levels)
# [7] = Table 5 panel, canonical junction qPCR, compound concentration having 50% response in CJ decrease, read-out: MYB IC50 (decrease in CJ mRNA levels)
# [8] = decrease in MYB canonical junction (CJ) mRNA, RT-qPCR, read-out: MYB CJ IC50
# [9] = Table 5 panel, canonical junction qPCR, compound concentration having 50% response in CJ decrease, read-out: Target C IC50 (decrease in CJ mRNA levels)
# [10] = canonical junction qPCR panel, Table 5, read-out: HTT (decrease in CJ mRNA levels, IC50)
# [11] = canonical junction qPCR panel, Table 5, read-out: MYB (decrease in CJ mRNA levels, IC50)
# [12] = canonical junction qPCR panel, Table 5, read-out: Target C (decrease in CJ mRNA levels, IC50)
SMILES,"IC50 [1, 5] [nM]",AC50 ([1]; RT-qPCR) [nM],"IC50 [1, 6] [nM]","IC50 [2, 7] [nM]","IC50 [2, 8] [nM]",AC50 ([2]; RT-qPCR) [nM],GI50 [3] [nM],"IC50 [4, 9] [nM]","IC50 [1, 10] [nM]","IC50 [2, 11] [nM]","IC50 [4, 12] [nM]"
Cc1cn2cc(-c3ncc4c(=O)n(C5CCNC5)ccc4n3)c(O)c(C)c2n1 (stereo not shown) [Compound 1227],> 10000,> 10000,> 10000,1000 to 10000,1000 to 10000,1000 to 10000,1000 to 10000,> 10000,–,–,–
Cc1cn2cc(-c3ncc4c(=O)n([C@@H]5CCNC5)ccc4n3)cc(F)c2n1 [Compound 1228],> 10000,> 10000,> 10000,100 to 1000,1000 to 10000,100 to 1000,1000 to 10000,> 10000,–,–,–
Cn1cc2cc(-c3ccc4c(=O)n(C5CCNCC5)ccc4n3)cc(F)c2n1 [Compound 1231],100 to 1000,100 to 1000,–,–,100 to 1000,100 to 1000,100 to 1000,–,100 to 1000,100 to 1000,100 to 1000
"Cc1cn2cc(-c3ccc4c(=O)n(C5CCNCC5)ccc4n3)nc(C)c2n1 [Compound 1238, 2-(2,8-dimethylimidazo[1,2-a]pyrazin-6-yl)-6-(piperidin-4-yl)-1,6-naphthyridin-5(6H)-one]",> 10000,> 10000,–,–,1000 to 10000,> 10000,> 10000,–,> 10000,> 10000,> 10000
Cc1cn2cc(-c3ccc4c(=O)n(C5CCNCC5)ccc4n3)c(O)cc2n1 [Compound 1240],> 10000,> 10000,–,–,1000 to 10000,1000 to 10000,1000 to 10000,–,> 10000,1000 to 10000,> 10000
"Cc1cn2cc(-c3ccc4c(=O)n(C5CCNCC5)ccc4n3)cc(C)c2n1 [Compound 1241, 2-(2,8-dimethylimidazo[1,2-a]pyridin-6-yl)-6-(piperidin-4-yl)-1,6-naphthyridin-5(6H)-one]",100 to 1000,100 to 1000,–,–,< 100,< 100,< 100,–,100 to 1000,< 100,1000 to 10000
Cn1cc2cc(-c3ccc4c(=O)n(C5CCNC6(CC6)C5)ccc4n3)c(O)cc2n1 (stereo not shown) [Compound 1242],< 100,< 100,–,–,< 100,< 100,< 100,–,< 100,< 100,100 to 1000
COc1c(-c2ccc3c(=O)n(C4CCNCC4)ccc3n2)cc2cn(C)nc2c1C [Compound 1243],> 10000,> 10000,–,–,> 10000,> 10000,> 10000,–,> 10000,> 10000,> 10000
Cn1cc2cc(-c3ccc4c(=O)n([C@@H]5CCNC6(CC6)C5)ccc4n3)c(O)cc2n1 [Compound 1246],100 to 1000,100 to 1000,–,–,< 100,< 100,100 to 1000,–,100 to 1000,< 100,1000 to 10000
Cc1cn2nc(-c3ccc4c(=O)n(C5CCNCC5)ncc4n3)cc(C)c2n1 [Compound 1247],< 100,< 100,–,–,< 100,< 100,100 to 1000,–,< 100,< 100,100 to 1000
Cc1c(O)c(-c2ccc3c(=O)n(C4CCNCC4)cc(C)c3n2)cc2cn(C)nc12 [Compound 1284],100 to 1000,< 100,–,–,< 100,< 100,< 100,–,< 100,< 100,100 to 1000
Cc1cn(C2CCNCC2)c(=O)c2ccc(-c3cc4cn(C)nc4c(F)c3O)nc12 [Compound 1285],< 100,< 100,–,–,< 100,< 100,< 100,–,< 100,< 100,< 100
Cn1cc2nc(-c3ccc4c(=O)n(C5CCNCC5)ccc4n3)c(O)cc2n1 [Compound 1296],100 to 1000,< 100,–,–,< 100,< 100,100 to 1000,–,< 100,< 100,100 to 1000
Cc1cn2cc(-c3ccc4c(=O)n(C5CCNCC5)ccc4n3)cc(C#N)c2n1 [Compound 1297],100 to 1000,100 to 1000,–,–,100 to 1000,100 to 1000,100 to 1000,–,100 to 1000,100 to 1000,100 to 1000
Cc1cn2cc(-c3ccc4c(=O)n(C5CCNC5)ccc4n3)cc(F)c2n1 (stereo not shown) [Compound 1299],> 10000,> 10000,–,–,1000 to 10000,100 to 1000,1000 to 10000,–,> 10000,100 to 1000,> 10000
"Cc1c(O)c(-c2ncc3c(=O)n(C4CCC(N)CC4)ccc3n2)cc2cn(C)nc12 (stereo not shown) [Compound 1300, 6-((1s,4s)-4-aminocyclohexyl)-2-(6-hydroxy-2,7-dimethyl-2H-indazol-5-yl)pyrido[4,3-d]pyrimidin-5(6H)-one]",1000 to 10000,100 to 1000,–,–,100 to 1000,100 to 1000,100 to 1000,–,100 to 1000,100 to 1000,1000 to 10000
Cc1cn2cc(-c3ncc4c(=O)n(C5CCNCC5)ccc4n3)cc(C#N)c2n1 [Compound 1301],100 to 1000,100 to 1000,–,–,100 to 1000,100 to 1000,100 to 1000,–,100 to 1000,100 to 1000,1000 to 10000
Cc1cn2cc(-c3ccc4c(=O)n(C5CCNC5)ccc4n3)c(O)c(C)c2n1 (stereo not shown) [Compound 1302],> 10000,> 10000,–,–,> 10000,> 10000,> 10000,–,> 10000,> 10000,> 10000
Cc1c(O)c(-c2ncc3c(=O)n(N4CCNCC4)ccc3n2)cc2cn(C)nc12 [Compound 1303],100 to 1000,100 to 1000,–,–,< 100,100 to 1000,100 to 1000,–,100 to 1000,100 to 1000,100 to 1000
Cc1c(O)c(-c2ncc3c(=O)n(C4CCN(C)CC4)ccc3n2)cc2cn(C)nc12 [Compound 1304],1000 to 10000,100 to 1000,–,–,100 to 1000,100 to 1000,100 to 1000,–,100 to 1000,100 to 1000,1000 to 10000
